# Experimental data as given in patent publication US11964973B2 (priority 2019, dated 2024).
# Read-outs that look alike come from different tables or passages of the source.
# Assays:
# [1] = system: Human venous whole blood (IFN-γ); experiment: Human whole blood IFN-γ assay; assay type: cell-based
# Procedure: Assay 10: Human Whole Blood IFN-γ Assay
# Human venous whole blood (22.5 μL per well), obtained from healthy donors, was pre-treated with compounds for one hour at 37° C. in a humidified 95% air/5% CO2 incubator. The blood was stimulated with 2.5 μL anti-human CD3 and anti-CD28 mAb at a final concentration of 1 μg/mL each for 24 hours at 37° C. IFN-γ in the supernatants was measured using AlphLISA kit (Cat #AL217).
# [2] = system: human venous whole blood, CD8 positive population (pERK); experiment: DGK human whole blood pERK assay; assay type: cell-based; conditions: for EC50: human whole blood pERK, read-out: DGK HWB; for IC50: read-out: DGK HWB pERK IC50
# In short: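 Heparinized whole blood from healthy donors preincubated with compound 1 hour at 37° C. Stimulation used anti-CD3 at 1 μg/mL final plus cross-linking goat anti-mouse IgG for 15 minutes. Flow cytometry scored percentage pERK-positive cells among CD8-positive cells.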
# human DGKζ = human DGKζ (Homo sapiens (Human), UniProt Q13574); experiment: biochemical; assay type: biochemical; conditions: Table A; liposome (LIPGLO) assay; read-out: DGKζ
# Chain of human DGKζ (Q13574 whole entry, looked up): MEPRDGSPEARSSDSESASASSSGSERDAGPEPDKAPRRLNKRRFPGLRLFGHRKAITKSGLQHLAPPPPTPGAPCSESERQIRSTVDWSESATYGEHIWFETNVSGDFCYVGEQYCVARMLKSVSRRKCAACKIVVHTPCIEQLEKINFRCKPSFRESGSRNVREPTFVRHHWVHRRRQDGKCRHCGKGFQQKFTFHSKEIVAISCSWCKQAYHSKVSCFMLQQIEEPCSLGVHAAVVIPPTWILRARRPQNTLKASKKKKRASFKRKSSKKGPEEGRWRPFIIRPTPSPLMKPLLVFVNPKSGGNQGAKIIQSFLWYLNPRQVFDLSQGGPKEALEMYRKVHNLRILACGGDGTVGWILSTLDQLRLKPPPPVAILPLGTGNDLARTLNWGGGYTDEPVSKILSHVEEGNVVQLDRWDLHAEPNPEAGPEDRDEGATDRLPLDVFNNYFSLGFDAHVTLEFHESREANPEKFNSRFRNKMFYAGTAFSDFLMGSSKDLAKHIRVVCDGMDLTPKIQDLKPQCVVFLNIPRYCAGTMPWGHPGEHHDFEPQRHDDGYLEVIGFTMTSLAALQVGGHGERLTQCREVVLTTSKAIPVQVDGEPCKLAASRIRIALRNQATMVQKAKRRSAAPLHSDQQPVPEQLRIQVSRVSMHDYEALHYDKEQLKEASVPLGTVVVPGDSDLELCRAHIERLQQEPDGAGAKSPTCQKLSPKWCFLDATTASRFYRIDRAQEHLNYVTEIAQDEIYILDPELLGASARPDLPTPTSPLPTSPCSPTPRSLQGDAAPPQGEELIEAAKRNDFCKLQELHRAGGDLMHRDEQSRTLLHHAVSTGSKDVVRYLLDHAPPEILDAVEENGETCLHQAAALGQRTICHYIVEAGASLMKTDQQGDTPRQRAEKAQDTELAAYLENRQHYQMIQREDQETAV
# [3] = Homo sapiens, human whole blood IFN-γ, read-out: INFg Whole Blood
# [4] = Homo sapiens, 24 h, human whole blood, anti-CD3 plus anti-CD28, 24 hours, read-out: INFg Whole Blood Normalized Agonist EC50
# [5] = human whole blood, CD8 positive population
# [6] = human whole blood IFN-γ, read-out: INFg Whole Blood
# [7] = human whole blood, anti-CD3 plus anti-CD28, 24 hours, read-out: INFg Whole Blood Normalized Agonist EC50
Structure (SMILES),"EC50 ([2]; Homo sapiens, CD8 positive) [µM]","IC50 [2, 5] [µM]","EC50 [1, 6] [µM]",other results
"CC(C)Oc1ccc(O[C@H]2CCN(c3cc(=O)n(C)c4ccc(C#N)nc34)C[C@H]2C)nc1 (racemic) [Example 228, (+/−) 8-(cis-4-((5-isopropoxypyridin-2-yl)oxy)-3-methylpiperidin-1-yl)-5-methyl-6-oxo-5,6-dihydro-1,5-naphthyridine-2-carbonitrile]",1.5,–,–,"EC50 [1, 3]: 1.1 µM"
"C[C@@H]1CN(c2cc(=O)n(C)c3ccc(C#N)nc23)CC[C@H]1Oc1ccc(F)c(F)c1 (single isomer, unassigned) [Example 104]",–,1.1,–,"EC50 [1, 4]: 1.8 µM"
"CC[C@@H]1CN(c2cc(=O)n(C)c3ccc(C#N)nc23)CC[C@H]1Oc1ccc(OC(C)C)cn1 (single isomer, unassigned) [Example 193]",–,–,0.37,IC50 (human DGKζ): 2.2 µM; EC50 [2]: 0.4 µM
"CC(C)c1cccc(O[C@H]2CCN(c3cc(=O)n(C)c4ccc(C#N)nc34)C[C@H]2C)n1 (single isomer, unassigned) [Example 216]",14,–,1.4,–
"CC(C)c1ccc(O[C@H]2CCN(c3cc(=O)n(C)c4ccc(C#N)nc34)C[C@H]2C)nc1 (single isomer, unassigned) [Example 206]",–,–,0.41,EC50 [2]: 3.6 µM
"CC[C@@H]1CN(c2cc(=O)n(C)c3ccc(C#N)nc23)CC[C@H]1Oc1ccc(C(C)C)cc1 (single isomer, unassigned) [Example 144]",–,0.88,–,"EC50 [1, 7]: 0.8 µM"
"C[C@@H]1CN(c2cc(=O)n(C)c3ccc(C#N)nc23)CC[C@@H]1Oc1ccc(C(F)F)cn1 (single isomer, unassigned) [Example 209]",18,–,–,"EC50 [1, 3]: 1.8 µM"
"C[C@@H]1CN(c2cc(=O)n(C)c3ccc(C#N)nc23)CC[C@H]1Oc1ccc(F)c(F)c1 (racemic) [Example 103, 8-((3R,4R)-4-(3,4-difluorophenoxy)-3-methylpiperidin-1-yl)-5-methyl-6-oxo-5,6-dihydro-1,5-naphthyridine-2-carbonitrile]",–,5.5,–,"EC50 [1, 4]: 1.5 µM"
"CC(C)Oc1ccc(O[C@@H]2CCN(c3cc(=O)n(C)c4ccc(C#N)nc34)C[C@H]2C)nc1 (single isomer, unassigned) [Example 200]",3.3,–,–,"EC50 [1, 3]: 1.5 µM"
"CC(C)c1ccc(O[C@H]2CCN(c3cc(=O)n(C)c4ccc(C#N)nc34)C[C@H]2C)nc1 (single isomer, unassigned) [Example 207]",–,–,1.3,EC50 [2]: 12 µM
"C[C@@H]1CN(c2cc(=O)n(C)c3ccc(C#N)nc23)CC[C@H]1Oc1ccc(C(F)(F)F)cc1 (racemic) [Example 97, 5-methyl-8-((3R,4R)-3-methyl-4-(4-(trifluoromethyl)phenoxy)piperidin-1-yl)-6-oxo-5,6-dihydro-1,5-naphthyridine-2-carbonitrile]",–,3,–,"EC50 [1, 4]: 1.9 µM"
"CC[C@@H]1CN(c2cc(=O)n(C)c3ccc(C#N)nc23)CC[C@H]1Oc1ccc(OC(C)C)cn1 (single isomer, unassigned) [Example 194]",–,–,1.8,IC50 (human DGKζ): 1.8 µM; EC50 [2]: 3 µM
"CC[C@@H]1CN(c2cc(=O)n(C)c3ccc(C#N)nc23)CC[C@H]1Oc1ccc(C(F)(F)F)cc1 (single isomer, unassigned) [Example 147]",–,0.61,–,"EC50 [1, 7]: 1.2 µM"
"CCO[C@@H]1CN(c2cc(=O)n(C)c3ccc(C#N)nc23)CC[C@H]1Oc1cccc(C(F)(F)F)c1 [Example 263, 8-((3R,4R)-3-ethoxy-4-(3-(trifluoromethyl)phenoxy)piperidin-1-yl)-5-methyl-6-oxo-5,6-dihydro-1,5-naphthyridine-2-carbonitrile]",0.2,–,0.18,–
"CC[C@@H]1CN(c2cc(=O)n(C)c3ccc(C#N)nc23)CC[C@@H]1Oc1cccc(C(C)C)c1 [Example 164, 8-((3R,4S)-3-ethyl-4-(3-isopropylphenoxy)piperidin-1-yl)-5-methyl-6-oxo-5,6-dihydro-1,5-naphthyridine-2-carbonitrile]",–,–,–,"EC50 ([1]; Homo sapiens, 24 h, read-out: INFg Whole Blood Normalized Agonist EC50, human whole blood, anti-CD3 plus anti-CD28, 24 hours): 0.79 µM; IC50 ([2]; Homo sapiens, CD8 positive): 5.1 µM"
